Entries after “also recorded” stand apart in the source; their conditions may differ.
Legend:
C. hominis (TU 502) = test: C. hominis TU502 growth in HCT-8 cells; assay type: cell-based; details: Cryptosporidium hominis
Procedure: Studies using farm C. parvum isolates and the C. hominis TU502 isolate were performed by Calibr at Scripps Research (La Jolla, Calif.) in 1,536-well plates using a slightly modified immunofluorescence assay as described in Love, M. S. et al. PLoS neglected tropical diseases 11, e0005373, doi:10.1371/journal.pntd.0005373 (2017), hereby incorporated by reference in its entirety. HCT-8 cell culture medium was replaced with RPMI 1640 medium supplemented with 2% heat-inactivated horse serum, 100 U·mL^−1 penicillin, and […] 24 h prior to infection with the indicated isolate. The C. parvum Iowa isolate was included as a reference in all experiments. Imaging was performed using a Cellnsight CX5 High Content screening platform (Thermo Scientific) with a 10× objective and acquisition of one microscopic field per well. Images were processed using HCS Studio Scan software, and the selected-object count (HCT-8 cells) and spot count (parasitophorous vacuoles) were analyzed in Genedata Screener (version 13.0; Standard). Dose-response curves and EC50 values were calculated using the Smart Fit function of Genedata Analyzer.

C. parvum = test: NOD SCID gamma mouse model of established cryptosporidiosis, fecal oocyst shedding by qPCR; assay type: in vivo, NOD SCID gamma mice
Description: FIG. 4A is a schematic of NOD SCID gamma (NSG) mouse model of established intestinal cryptosporidiosis. Intestinal C. parvum infection was established by oral gavage of ˜10^5 oocysts either 7 days (FIGS. 4B and C) or 14 days (FIG. 4D) prior to oral treatment with bicyclic azetidines, vehicle, or paromomycin (positive control). All data are the mean and SEM (n=4 mice per experimental group) of parasite shedding per mg of feces measured by qPCR with results for individual mice shown as superimposed data points. Data points for which no parasite DNA was detected are shown at the qPCR assay limit of detection (0.1 oocysts per mg feces).
NOD scid gamma mice (NOD.Cg-Prkdcscid Il2rgtmlWjl/Szj; Jackson Laboratory, Bar Harbor, Me.) (NSG) were used to model established Cryptosporidium infection. All NSG mouse studies were performed in compliance with animal care guidelines and with approval by the University of Vermont Institutional Animal Care and Use Committee. Mice were acquired at three to four weeks of age, and acclimatized for one week prior to infection by oral gavage of ˜10^5 C. parvum Iowa isolate (Bunch Grass Farms) oocysts. They were then treated at the specified times and dosages with each compound dissolved in 0.5% hydroxypropylmethyl cellulose, 0.5% Tween 80 (v/v) plus 5% DMSO.
This cryptosporidiosis infection model used 3-4 week old, freshly weaned, NOD SCID gamma mice orally infected with C. parvum oocysts (˜1×10^5). The infection was monitored by qPCR of feces with primers specific for C. parvum and data are shown as number of oocysts milligram^−1 of feces. Six days following infection and upon confirmation of parasite shedding by qPCR, the three compounds, negative and positive control were orally administered at 50 mg·kg^−1 (body weight) every 24 h for 4 days. (FIGS. 4A-D). […] We then performed a dose-ranging study with Compound 11 using the same immunocompromised mouse model and dosing regimens of 5, 20 and 40 mg·kg^−1 every 24 h for 4 days or 10 mg·kg^−1 every 24 h for 7 days. Mice were monitored for an additional 14 days for relapse of infection.

C. parvum (Iowa isolate) = test: EdU incorporation (DNA synthesis) assay of intracellular development in HCT-8 cells; assay type: cell-based, Cryptosporidium parvum; details: 2×EC90; FIG. 6A legend says EC90
Procedure: DNA synthesis was assayed during intracellular development of C. parvum (Iowa isolate) within HCT-8 cells by measuring incorporation of the thymidine analogue 5-ethynyl-2′-deoxyuridine (EdU) using epifluorescence microscopy as described in Jumani, R. S. et al. Nat Commun 10, 1862, doi:10.1038/s41467-019-09880-w (2019), hereby incorporated by reference in its entirety. HCT-8 cells were grown to >90% confluence in 96-well plates coated with 50 μg mL^−1 fibronectin (BD Pharmingen, catalog #354008), and then infected using the method described above with ˜5.5×10^4 C. parvum Iowa isolate oocysts per well. Compound 11 was added at 2×EC90 3 hours after infection, followed by incubation for 6 hours and then addition of […] EdU. After incubation for two more hours, the monolayers were washed and fixed with 4% formaldehyde in saline. Cells were then permeabilized, and stained with FITC-Vicia villosa lectin, Hoechst 33258, and for incorporation of EdU using the Click-iT assay kit (Thermo Fisher Scientific). Images were acquired by focusing on the parasite focal plane on top of the host cell monolayer using a 40× objective (0.7 NA), and parasitophorous vacuoles and EdU positive vacuoles were quantified using NIH ImageJ software.

[1] = test system: C. parvum Iowa isolate (Bunch Grass Farms); test: C. parvum time-kill curve assay in HCT-8 cells; assay type: cell-based, Cryptosporidium parvum
Procedure: Time-kill curve assays were performed in 384-well plates using C. parvum Iowa isolate oocysts (Bunch Grass Farms, Deary, Id.) following infection of HCT-8 cell monolayers as described in Jumani, R. S. et al. Antimicrobial agents and chemotherapy 62, e01505-01517 (2018), hereby incorporated by reference in its entirety. […] Single-phase exponential decay curves were fit using GraphPad Prism software version 6.01 after normalizing the percentage of host cells infected to the vehicle control value at each time point, which isolates the effect of compound treatment from the spontaneous reduction in parasite numbers that occurs in this culture system.

COc1ccc(NC(=O)N2CCCCN3[C@H](CN(C)C)[C@H](c4ccc(C#Cc5ccccc5)cc4)[C@@H]3C2)cc1 [Compound 11, (8R,9S,10S)-10-((dimethylamino)methyl)-N-(4-methoxyphenyl)-9-(4-(phenylethynyl)phenyl)-1,6-diazabicyclo[6.2.0]decane-6-carboxamide]
EC50 (C. hominis (TU 502)): 10 nM | oocyst shedding at follow-up for relapse (C. parvum; 10 mg/kg every 24 h for 7 days, monitored an additional 14 days): no oocyst shedding was observed | log reduction in oocysts·mg^−1 stool (C. parvum; oral, 50 mg/kg every 24 h for 4 days): ~3 log | reduction in oocyst shedding (oocysts per mg feces) (C. parvum; oral, 50 mg/kg every 24 h for 4 days, 50 mg/kg): significant reduction in oocyst shedding; also recorded: greatest reduction in oocysts | intracellular parasite development (EdU incorporation) (C. parvum (Iowa isolate)): strongly inhibited intracellular parasite development | parasites per nucleus at 80 h ([1]; compound at EC50): ~60% | parasites per nucleus at 80 h ([1]; compound at EC90): ~30% | time required to eliminate 99.9% of parasites ([1]; normalized to vehicle control): ~95 h

Source: US20230009323A1, “COMPOUNDS AND METHODS FOR THE TREATMENT OF CRYPTOSPORIDIOSIS” (The Broad Institute, Inc., priority 2019, published 2023)
